These results are taken from patent US10137072B2, “Methods and compositions for providing broad spectrum photo protection using antioxidants” (L'OREAL, priority 2016, dated 2018).

Like-named read-outs stand apart in the source and are kept apart here. Bounds are passed on as bounds.

This experiment has as its system human skin keratinocytes and/or fibroblasts. Briefly: in vitro ROS probe assay: protection of live skin cells against ROS induced by visible light and infrared radiation. To be noted: cells pre-treated 24 hours at 10 μg/ml (0.001%), antioxidant removed before exposure; for inhibition at 10 µg/mL: Homo sapiens, light or radiation study. The class given is cell-based. Also noted: key to Visible light protection % / IR protection %: Strong: “strong” refers to a percent protection greater than 70%; “Medium” refers to a percent protection less than or equal to 70% but greater than or equal to 40%; “Low” refers to a percent protection less than 40%; Negative: The term “negative” is used when there is no protection. An excerpt:
A sensitive in vitro ROS (Reactive Oxygen Species) probe was used to evaluate the protective effects of antioxidants on live skin cells against visible light and infrared radiation (IR). Based on a blind screening of 26 compounds, 12 compounds were discovered that efficiently (>40%) decrease the ROS induced by visible light and/or IR radiation on human skin keratinocytes and/or fibroblasts. These compounds (or mixtures of these compounds) provide biological protection for skin cells against visible light and infrared radiation.
Human cells were pre-treated with and without antioxidants for 24 hours at a very low concentration (10 μg/ml (0.001%)). After incubation for 24 hours, the cells were rinsed and the medium changed in order to remove all the antioxidants before light exposure. The cells were exposed to visible light (100 J/cm^2) and infrared radiation (200 J/cm^2) using Xenon Light Source 300W Monochromatic Light with Filters Max-303 (Asashi Spectra company). After exposure to the visible light and the IR radiation, a new ROS probe was incubated with the cells for one hour to track the in vitro ROS produced. A comfocal microscope and associated software was used to image the fluorescent signals from individual cells and quantify the fluorescence intensity. By comparing with control samples without a pretreatment of antioxidants, it was possible to quantify the protection effect.
In the table above, “strong” refers to a percent protection greater than 70%, “Medium” refers to a percent protection less than or equal to 70% but greater than or equal to 40%. “Low” refers to a percent protection less than 40%. The term “negative” is used when there is no protection. The protection percentage was defined according to the equation below (wherein the term “AOX” refers to “antioxidant”).
Since the in vitro tests were done on live human skin cells, kerotinocytes and fibroblasts, and the antioxidants in the cell culture media were removed before light exposure, the results directly predict the biological protection effects of the antioxidants on skin against visible light and infrared radiation.

Where [1] appears, read: ROS induced by infrared radiation (200 J/cm^2), read-out: IR protection %.
Where [2] appears, read: ROS induced by visible light (100 J/cm^2), read-out: Visible light protection %.
[3] abbreviates: ROS induced by infrared radiation (200 J/cm^2).
[4] abbreviates: ROS induced by visible light (100 J/cm^2).

For `C[C@@H]1O[C@@H](O[C@H]2C(=O)c3c(O)cc(O)cc3O[C@@H]2c2ccc(O)c(O)c2)[C@H](O)[C@H](O)[C@H]1O` [Astilbin, astilbin], the inhibition at 10 µg/mL reads like this: under setting [1], 40 to 70%; under setting [2], 40 to 70%.

In the case of `O=C(O)[C@H]1O[C@@H](Oc2cc3oc(-c4ccccc4)cc(=O)c3c(O)c2O)[C@H](O)[C@@H](O)[C@@H]1O` [Baicalin, baicalin], the inhibition at 10 µg/mL reads like this: under setting [1], 40 to 70%; under setting [2], greater than 70%.

As to `NCCC(=O)N[C@@H](Cc1c[nH]cn1)C(=O)O` [Carnosin], the IR protection % entry under setting [3] is on record as “Low (“Low” refers to a percent protection less than 40%)”. The “Visible light protection %” value under setting [4] was “Low (“Low” refers to a percent protection less than 40%)”.

Consider `COc1cc(/C=C/C(=O)O)ccc1O` [Ferulic Acid, ferulic acid], for which the inhibition at 10 µg/mL under setting [1] lay in the range of 40 to 70% and the inhibition at 10 µg/mL under setting [2] fell in the range of 40 to 70%.

Turning to `COc1ccc([C@@H]2CC(=O)c3c(O)cc(O)cc3O2)cc1O` [Hesperetin, hesperetin], the inhibition at 10 µg/mL is, setting by setting: under setting [1], less than 40%; under setting [2], greater than 70%.

Consider `COc1ccc(CCC(=O)c2c(O)cc(O[C@@H]3O[C@H](CO)[C@@H](O)[C@H](O)[C@H]3O[C@@H]3O[C@@H](C)[C@H](O)[C@@H](O)[C@H]3O)cc2O)cc1O` [Neohesperidin DHC], for which the IR protection % result under setting [3] is “Strong (“strong” refers to a percent protection greater than 70%)”. Further, the “Visible light protection %” value under setting [4] is listed as “Negative”.

Turning to `O=C(CCc1ccc(O)cc1)c1c(O)cc(O)cc1O` [Phloretin], the “Visible light protection %” value under setting [4] is given as “Negative”.

Take `OC[C@H]1O[C@@H](Oc2cc(O)cc(/C=C/c3ccc(O)cc3)c2)[C@H](O)[C@@H](O)[C@@H]1O` [Polydatin, polydatin]: the inhibition at 10 µg/mL is greater than 70% under setting [1] and greater than 70% under setting [2].

For `O=C1N[C@H](C(=O)O)CS1` [Pro-cysteine], under setting [1], the inhibition at 10 µg/mL was less than 40%. Also, the “Visible light protection %” value under setting [4] is recorded as “Negative”.

As for `Oc1ccc(C=Cc2cc(O)cc(O)c2)cc1` [Resveratrol], the inhibition at 10 µg/mL under setting [2] was less than 40%. In addition, the IR protection % entry under setting [3] was “Negative”.

`CC1=NCC[C@@H](C(=O)O)N1` [Ronacare Ectoin]: the IR protection % entry under setting [3] was “Low (“Low” refers to a percent protection less than 40%)”. Moreover, the “Visible light protection %” value under setting [4] is given as “Negative”.

Take `COC1=C(OC)C(=O)C(C/C=C(\C)CC/C=C(\C)CC/C=C(\C)CC/C=C(\C)CC/C=C(\C)CC/C=C(\C)CC/C=C(\C)CC/C=C(\C)CC/C=C(\C)CCC=C(C)C)=C(C)C1=O` [Ubiquinone(coQ10), Ubiquinone]: under setting [1], the inhibition at 10 µg/mL is greater than 70%.

As to `O=C1O[C@H]([C@@H](O)CO)C(O)=C1O` [Vit C], the IR protection % result under setting [3] is reported as “Low (“Low” refers to a percent protection less than 40%)”. Moreover, the “Visible light protection %” value under setting [4] was “Low (“Low” refers to a percent protection less than 40%)”.

For `C=CC(C)(C)c1cc(/C=C/C(=O)c2ccc(O)cc2)c(OC)cc1O` [licochalcone A], the “Visible light protection %” value under setting [4] was “Negative”.

Turning to catechin, the IR protection % result under setting [3] is reported as “Medium (“Medium” refers to a percent protection less than or equal to 70% but greater than or equal to 40%)”. Further, the “Visible light protection %” value under setting [4] was “Strong (“strong” refers to a percent protection greater than 70%)”.
